Measured values as given in patent US20220290085A1, “CELL-SENSORY BIOSCAFFOLDS, FABRICATION METHODS AND APPLICATIONS OF SAME” (BOARD OF TRUSTEES OF THE UNIVERSITY OF ARKANSAS, priority 2019, published 2022).

Columns and labels:
MDA-MB231 = assay: Impedance on TiO2 nanowire bioscaffold sensor of DOX-treated MDA-MB231 cells; type: cell-based, human; conditions: DOX 2 μM 24 hrs, FIG. 25
Description: (§1) To investigate the cell impedance change due to the DOX, the two cell lines were first cultured to reach about 90% confluence and then the DOX (2 μM) was added over two time-intervals, about 24 hours and about 48 hours. The cells were then harvested using trypsin and counted using the hemocytometer and trypan blue stain to control the cell number. The cells were then suspended in about 10 mL of 1×PBS with the TiO2 nanowires sensor for about 35 minutes, and the impedance was tested likewise from about 40 kHz to about 1 MHz. The DOX is supposed to decrease the MCF7 impedance due to cell's resistance to the DOX. This is because the overexpressed P-glycoprotein 1 (P-gp), also called multidrug resistance protein 1 (MDR1) or ATP-binding cassette sub-family B member 1 (ABCB1) or cluster of differentiation 243 (CD243), can pump the foreign molecules out of the MCF7 cell.
(§2) The second set of experiment was done as in the first step, with glucose (5.5 mM) in the cell suspensions to investigate the cell impedance correspondence to glucose effect after being treated with DOX. The biosensors were done after about 35 minutes in the cell suspension, with the impedance parameters same as described previously.

MCF7 [1] = assay: Impedance on TiO2 nanowire bioscaffold sensor of DOX-treated MCF7 cells; type: cell-based, human; conditions: DOX 2 μM 24 hrs, then glucose 5.5 mM for 35 minutes, 1×PBS, FIG. 24
Description: as §1, §2

[2] = test system: breast cancer cells (MCF7); assay: Doxorubicin drug cytotoxicity in cell culture; type: cell-based, human; conditions: drug cytotoxicity assessment, FIG. 23
Description: Impedance Measurement for Doxorubicin Drug Effect on Breast Cancer Cell Lines: This test was performed to investigate the effect of a well-known chemotherapy drug Doxorubicin on two different cancer cell lines. Doxorubicin (DOX, C27H29NO11), also called Adriamycin™, is a popular chemotherapy drug for treating several types of cancer including breast cancer via triggering the cancer cell death. This drug was used to quantify the drug effect on breast cancer cells' metabolism in response to stresses from different dosages of the DOX, via monitoring the impedance signal change from the cancer cells before and after the DOX treatment. The drug cytotoxicity was assessed to determine the concentration of 2.0 μM, which the cancer cells start to die in a proper pace that can enable us to quantitatively characterize the DOX effect on the cancer cell's metabolism and apoptosis directly on the smart bioscaffold, as shown in FIG. 23.

MCF7 [3] = conditions: MCF7 vs MDA-MB231; cited from earlier work

COc1cccc2c1C(=O)c1c(O)c3c(c(O)c1C2=O)C[C@@](O)(C(=O)CO)C[C@@H]3O[C@H]1C[C@H](N)[C@H](O)[C@H](C)O1 [Doxorubicin]
response to glucose after being pre-treated with DOX (MDA-MB231; glucose 5.5 mM): no significant response to glucose
impedance on the bioscaffold after DOX pre-treatment and glucose incubation (MDA-MB231; then glucose 5.5 mM for 35 minutes, 1×PBS): lower impedance
impedance on the bioscaffold at low frequency after DOX pre-treatment and glucose incubation (MCF7 [1]): higher impedance
concentration at which the cancer cells start to die in a proper pace [2]: 2.0 µM
resistance of MCF7 to DOX compared with MDA-MB231 (MCF7 [3]): more resistive
